Some test systems named below: NCI-H226; HCT-15; HT-29; M14; KM12; MDA-N; A549; SF-268; U-251; RXF 393; SW-620; HCC 2998; UACC-62; PC-3; MOLT-4; HL-60; SNB-19; HOP-62; NCI/ADR-RES.
Common to all, as to test: NCI anticancer screen, dose series, 48 h

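Test compounds were applied to cells in 96-well plates for 48 hours at 5 doses. Abbreviation: GI50, concentration required for 50% inhibition of growth.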 The source made the active and inactive calls. No stated cut-off is given here; in the data, active = GI50 up to about 1.1 µM and inactive = higher.

As to `Nc1cc(O)c2c(c1O)C(=O)C=CC2=O`, the GI50 with NCI-H226 was 67.1 µM (inactive); with HCT-15 it was 7.41 µM; in the assay on HT-29, 4.55 µM (inactive); with M14, 7.76 µM (inactive); in the assay with KM12, 19.6 µM (inactive); in the assay with MDA-N, 6.1 µM (inactive). For the same compound, the GI50 in the assay with A549 is 19.6 µM (inactive); with SF-268, 22.9 µM (inactive); in the assay with U-251 it was 18.2 µM (inactive); with RXF 393, 6.93 µM (inactive); in the assay with SW-620, 4.33 µM (inactive); in the assay on HCC 2998 it was 9.31 µM (inactive). In addition, the GI50 is 11.4 µM (inactive) in the assay on UACC-62; 19.5 µM (inactive) with PC-3; 4.66 µM (inactive) with MOLT-4; 2.21 µM (inactive) with HL-60; 23.8 µM (inactive) with SNB-19; 27.3 µM (inactive) in the assay with HOP-62. Also, in the assay on NCI/ADR-RES, the GI50 was 10 µM (inactive).
Regarding `O=C1C=CC(=O)c2c(O)c(N3CCN(c4ccccn4)CC3)cc(O)c21`, the GI50 with NCI-H226 was 45.7 µM (inactive); with HCT-15, 3.28 µM; in the assay with HT-29, 4.3 µM (inactive); in the assay with M14 it was 3.29 µM (inactive); with KM12, 11 µM (inactive); with MDA-N, 2.41 µM (inactive). Moreover, the GI50 with A549 was 5.85 µM (inactive); with SF-268, 11.9 µM (inactive); in the assay on U-251, 5.64 µM (inactive); with RXF 393, 7.26 µM (inactive); in the assay on SW-620 it was 3.58 µM (inactive); in the assay with HCC 2998 it was 8.73 µM (inactive). Further, the GI50 with UACC-62 is 5.9 µM (inactive); with PC-3, 16.2 µM (inactive); in the assay on MOLT-4, 4.22 µM (inactive); in the assay on HL-60, 3.01 µM (inactive); in the assay on SNB-19 it was 19.2 µM (inactive); in the assay on HOP-62 it was 21 µM (inactive). Moreover, in the assay on NCI/ADR-RES, the GI50 is 2.33 µM (inactive).
`CC(C)=CCC[C@@H](C)C1=C(Nc2ccccc2)C(=O)C(C)=C(O)C1=O`: the GI50 in the assay on NCI-H226 was 3.13 µM (inactive); in the assay with HCT-15, 0.875 µM; in the assay with HT-29, 4.16 µM (inactive); in the assay with M14, 3.13 µM (inactive); in the assay on KM12, 3.42 µM (inactive); in the assay on MDA-N it was 4.54 µM (inactive). In addition, the GI50 in the assay with A549 is 2.56 µM (inactive); with SF-268 it was 1.73 µM (inactive); in the assay with U-251 it was 2.74 µM (inactive); with RXF 393 it was 3.78 µM (inactive); in the assay on SW-620 it was 3.78 µM (inactive); in the assay with HCC 2998 it was 5.92 µM (inactive). Also, the GI50 in the assay on UACC-62 is 4.03 µM (inactive); with PC-3 it was 3.63 µM (inactive); in the assay with MOLT-4, 0.719 µM (active); with HL-60 it was 0.303 µM (active); with SNB-19, 3.77 µM (inactive); in the assay on HOP-62, 1.81 µM (inactive). Moreover, the GI50 with NCI/ADR-RES is 0.815 µM (active).
With `COc1ccc(/C=C2\N=C(N3CCCC(CO)C3)NC2=O)cc1` (centres undefined), the GI50 is > 100 µM (inactive) with NCI-H226; greater than 100 µM in the assay on HCT-15; > 100 µM (inactive) in the assay on HT-29; > 100 µM (inactive) in the assay with M14; > 100 µM (inactive) in the assay with KM12; > 100 µM (inactive) in the assay on MDA-N. Also, the GI50 with A549, with SF-268, in the assay on U-251, with RXF 393, with SW-620 and in the assay with HCC 2998 was > 100 µM (inactive) each time. For the same compound, the GI50 with UACC-62, in the assay on PC-3, in the assay on MOLT-4, in the assay with HL-60, with SNB-19 and in the assay on HOP-62 was > 100 µM (inactive) throughout. The GI50 with NCI/ADR-RES was > 100 µM (inactive).
As for `CCO/C=C(\C(=O)OC)S(=O)(=O)c1ccc(C)cc1`, the GI50 with NCI-H226 was > 100 µM (inactive); with HCT-15 it was greater than 100 µM; in the assay with HT-29 it was > 100 µM (inactive); with M14, > 100 µM (inactive); in the assay with KM12, > 100 µM (inactive); with MDA-N, > 100 µM (inactive). For the same compound, the GI50 in the assay with A549, with SF-268, in the assay with U-251, in the assay with RXF 393, with SW-620 and with HCC 2998 was > 100 µM (inactive) throughout. For the same compound, the GI50 with UACC-62 is > 100 µM (inactive); with PC-3, > 100 µM (inactive); in the assay on MOLT-4, > 100 µM (inactive); with HL-60, 0.0596 µM (active); with SNB-19, > 100 µM (inactive); in the assay with HOP-62, > 100 µM (inactive). The GI50 with NCI/ADR-RES was > 100 µM (inactive).
As for `N#Cc1c(-c2ccccc2)cc(-c2ccc(Cl)cc2)[nH]c1=S`, the GI50 in the assay on NCI-H226 was 25.6 µM (inactive); in the assay with HCT-15, 25.8 µM; with HT-29 it was 37 µM (inactive); in the assay on M14 it was 38.9 µM (inactive); in the assay on KM12, 58.5 µM (inactive); in the assay on MDA-N, 34.5 µM (inactive). Also, the GI50 in the assay on A549 is 38.4 µM (inactive); with SF-268, 41.3 µM (inactive); with U-251, 21.3 µM (inactive); with RXF 393, 34 µM (inactive); with SW-620, 28.4 µM (inactive); in the assay on HCC 2998, 31.9 µM (inactive). The GI50 is 27.9 µM (inactive) in the assay with UACC-62; 27.1 µM (inactive) with PC-3; 28.1 µM (inactive) with MOLT-4; 45.6 µM (inactive) in the assay on HL-60; 32.8 µM (inactive) in the assay on SNB-19; 50.1 µM (inactive) in the assay on HOP-62. Also, the GI50 with NCI/ADR-RES is 39.4 µM (inactive).
As to `Oc1cccc(-c2cn3cc(Cl)ccc3n2)c1`, the GI50 with NCI-H226 was 91.4 µM (inactive); in the assay with HCT-15 it was 30.7 µM; in the assay on HT-29 it was 43.4 µM (inactive); with M14 it was 49.7 µM (inactive); in the assay on KM12, 37.2 µM (inactive); in the assay with MDA-N it was 39.8 µM (inactive). Also, the GI50 in the assay on A549 is 51.5 µM (inactive); in the assay with SF-268, 55.1 µM (inactive); in the assay with U-251 it was 69.2 µM (inactive); in the assay with RXF 393, 23.1 µM (inactive); in the assay with SW-620, > 100 µM (inactive); in the assay on HCC 2998, 38.4 µM (inactive). The GI50 in the assay with UACC-62 is 35.1 µM (inactive); with PC-3, 29.2 µM (inactive); with MOLT-4, 32.7 µM (inactive); in the assay on HL-60 it was 5.4 µM (inactive); in the assay on SNB-19 it was > 100 µM (inactive); in the assay on HOP-62, > 100 µM (inactive). In addition, in the assay on NCI/ADR-RES, the GI50 was 34.5 µM (inactive).
`CCOC(=O)/C(C(=O)Nc1cccc(C(F)(F)F)c1)=C(/N)N1CCOCC1`: the GI50 with NCI-H226 is 86.9 µM (inactive); in the assay with HCT-15, greater than 100 µM; in the assay with HT-29, > 100 µM (inactive); in the assay on M14, > 100 µM (inactive); in the assay on KM12, > 100 µM (inactive); in the assay with MDA-N it was > 100 µM (inactive). The GI50 in the assay with A549, with SF-268, in the assay on U-251, in the assay with RXF 393, with SW-620 and in the assay with HCC 2998 was > 100 µM (inactive) each time. The GI50 in the assay with UACC-62, in the assay on PC-3, with MOLT-4, in the assay with HL-60, with SNB-19 and in the assay on HOP-62 was > 100 µM (inactive) each time. For the same compound, the GI50 in the assay with NCI/ADR-RES is > 100 µM (inactive).
For the compound `C=CCN1C(=O)CC2[C@@H]3CCc4cc(O)ccc4C3CC[C@]2(C)C1=O` (some centres undefined), the GI50 in the assay on NCI-H226 is > 10 µM (inactive); in the assay with HCT-15 it was greater than 10 µM; in the assay with HT-29 it was > 10 µM (inactive); in the assay with M14, > 10 µM (inactive); in the assay with KM12 it was > 10 µM (inactive); with MDA-N, > 10 µM (inactive). The GI50 in the assay on A549, in the assay on SF-268, with U-251, in the assay on RXF 393, with SW-620 and in the assay on HCC 2998 was > 10 µM (inactive) throughout. Besides, the GI50 with UACC-62, with PC-3, in the assay with MOLT-4, in the assay on HL-60, with SNB-19 and in the assay with HOP-62 was > 10 µM (inactive) in each case. For the same compound, the GI50 in the assay with NCI/ADR-RES was > 10 µM (inactive).
For the compound `C=CC1(c2ccc(OC)cc2)OCCCO1`, the GI50 was > 100 µM (inactive) in the assay with NCI-H226; greater than 100 µM in the assay on HCT-15; > 100 µM (inactive) in the assay on HT-29; > 100 µM (inactive) with M14; > 100 µM (inactive) in the assay with KM12; > 100 µM (inactive) with MDA-N. For the same compound, the GI50 with A549, in the assay on SF-268, with U-251, with RXF 393, in the assay on SW-620 and in the assay with HCC 2998 was > 100 µM (inactive) in each case. In addition, the GI50 in the assay on UACC-62, in the assay with PC-3, with MOLT-4, with HL-60, in the assay on SNB-19 and in the assay on HOP-62 was > 100 µM (inactive) in each case. For the same compound, the GI50 with NCI/ADR-RES was > 100 µM (inactive).
With `CC(=O)OCC1OC(OC2CC3C(C)(C)C(=O)CC[C@]3(C)C3CC[C@]45C[C@]4(CCC5[C@@H](C)CC(O)C(O)C(C)(C)O)[C@]23C)C(O)C(O)C1O` (some centres undefined), the GI50 with NCI-H226 is 16.5 µM (inactive); in the assay on HCT-15 it was 17.6 µM; in the assay with HT-29, 4.23 µM (inactive); in the assay on M14, 10.3 µM (inactive); in the assay on KM12 it was 6.43 µM (inactive); with MDA-N it was 10.7 µM (inactive). Moreover, the GI50 in the assay with A549 is 17.3 µM (inactive); in the assay on SF-268 it was 10.1 µM (inactive); with U-251, 8.13 µM (inactive); in the assay on RXF 393 it was 10 µM (inactive); with SW-620 it was 13.2 µM (inactive); in the assay with HCC 2998, 10 µM (inactive). Also, the GI50 in the assay with UACC-62 was 10.5 µM (inactive); in the assay on PC-3 it was 9.82 µM (inactive); with MOLT-4, 3.71 µM (inactive); in the assay on HL-60, 2.25 µM (inactive); in the assay on SNB-19 it was 11.3 µM (inactive); with HOP-62, 19.3 µM (inactive). For the same compound, the GI50 in the assay on NCI/ADR-RES was 18.3 µM (inactive).

(Values after ChEMBL document CHEMBL1201862, “PubChem BioAssay data set” (2004).)
